Measured values from patent US20200362309A1, “Method for preparing BAP or BA cells” (Anagenesis Biotechnologies S.A.S., priority 2017, published 2020).

Tested on: BA cells differentiated from hiPS-derived BAP
Test: Lipolysis: free glycerol release by BA cells after forskolin stimulation
Type: cell-based, human
Details: forskolin 10 μM, 24 hours; BAP derived at day 12 or 16, 5 passages, differentiated for 17 days
Procedure: Lipolysis: The BAP were differentiated for 17 days. Then the cells were maintained for 24 hours in DMEM 1g/Iglucose supplemented with BSA 0,2%. Lipolysis was stimulated with forskolin (10 μM) for 24 hours.

C=C[C@@]1(C)CC(=O)[C@]2(O)[C@@]3(C)[C@@H](O)CCC(C)(C)[C@@H]3[C@H](O)[C@H](OC(C)=O)[C@@]2(C)O1 [forskolin]
increase of the free glycerol released, treated cells compared to untreated cells: about 60%
